The record followed here is US9862726B2, “Opioid receptor modulating oxabicyclo[2.2.2]octane morphinans” (PURDUE PHARMA L.P., priority 2013, dated 2018).

Structures are written as SMILES. Like-named read-outs stand apart in the source and are kept apart here.

For assay [1], the target named is recombinant human kappa opioid receptor (κ) (Homo sapiens (Human), UniProt P41145). Description: κ-opioid receptor radioligand dose-displacement binding assay (HEK-293 cells). The protocol:
Membranes from HEK-293 cells, CHO cells or U-2 OS cells expressing the recombinant human kappa opioid receptor (κ) were prepared by lysing cells in ice cold hypotonic buffer (2.5 mM MgCl2, 50 mM HEPES, pH 7.4) (10 mL/10 cm dish) followed by homogenization with a tissue grinder/Teflon pestle. Membranes from a cell line naturally expressing kappa opioid receptor can also be used. Membranes were collected by centrifugation at 30,000×g for 15 min at 4° C. and pellets were resuspended in hypotonic buffer to a final concentration of 1-3 mg/mL. Protein concentrations were determined using the BioRad protein assay reagent with bovine serum albumen as standard. Aliquots of κ receptor membranes were stored at −80° C.
Radioligand dose displacement assays used 0.4 nM [^3H]-U69,593 (GE Healthcare, Piscataway, N.J.; 40 Ci/mmole) with 15 μg membrane protein (recombinant κ opioid receptor expressed in HEK 293 cells; in-house prep) in a final volume of 200 μl binding buffer (5% DMSO, 50 mM Trizma base, pH 7.4). Non-specific binding was determined in the presence of 10 μM unlabeled naloxone or U69,593. All reactions were performed in 96-well polypropylene plates for 1 hour at a temperature of about 25° C. Binding reactions were terminated by rapid filtration onto 96-well Unifilter GF/C filter plates (Perkin Elmer, Shelton, Conn.) presoaked in 0.5% polyethylenimine (Sigma). Harvesting was performed using a 96-well tissue harvester (Perkin Elmer, Shelton, Conn.) followed by five filtration washes with 200 μl ice-cold binding buffer. Filter plates were subsequently dried at 50° C. for 1-2 hours. Fifty μl/well scintillation cocktail (Perkin Elmer, Shelton, Conn.) was added and plates were counted in a Packard Top-Count for 1 min/well.
(§1) In TABLE 3, binding affinity of certain Compounds of the Invention to the μ- and κ-opioid receptors was determined as described above using HEK-293 cells.

Assay [2] has as its target T1, μ-opioid receptor (Homo sapiens (Human), UniProt P35372). The experiment in a line: μ-opioid receptor [35S]GTPγS functional assay (HEK-293 cells). Format: biochemical. To be noted: for Emax: relative to DAMGO. The protocol: (§2) [^35S]GTPγS functional assays were conducted using freshly thawed μ-receptor membranes prepared in-house from a cell line expressing recombinant μ opioid receptor in a HEK-293, CHO or U-2 OS cell background, or purchased from a commercial source (Perkin Elmer, Shelton, Conn.; or DiscovRx, Fremont, Calif.). Assay reactions were prepared by sequentially adding the following reagents to binding buffer (100 mM NaCl, 10 mM MgCl2, 20 mM HEPES, pH 7.4) on ice (final concentrations indicated): membrane protein (0.026 mg/mL), saponin ([…]), GDP ([…]) and [^35S]GTPγS (0.20 nM; Perkin Elmer, Shelton, Conn.). The prepared membrane solution (190 μl/well) was transferred to 96-shallow well polypropylene plates containing 10 μl of 20× concentrated stock solutions of the agonist [D-Ala^2, N-methyl-Phe^4 Gly-ol^5]-enkephalin (DAMGO) prepared in dimethyl sulfoxide (DMSO). Plates were incubated for 30 min at about 25° C. with shaking. Reactions were terminated by rapid filtration onto 96-well Unifilter GF/B filter plates (Perkin Elmer, Shelton, Conn.) using a 96-well tissue harvester (Perkin Elmer, Shelton, Conn.) followed by three filtration washes with 200 μl of ice-cold wash buffer (10 mM NaH2PO4, 10 mM Na2HPO4, pH 7.4). Filter plates were subsequently dried at 50° C. for 2-3 hours. BetaScint scintillation cocktail (Perkin Elmer, Shelton, Conn.) was added (50 μl/well) and plates were counted using a Packard Top-Count for 1 min/well. Data were analyzed using the sigmoidal dose-response curve fitting functions in GraphPad PRISM v. 3.0, or an in-house function for non-linear, sigmoidal dose-response curve-fitting. [^35S]GTPγS functional assays can also be conducted using freshly thawed μ-receptor membranes prepared from a cell line expressing recombinant μ opioid receptor in a CHO-K1 cell background.
(§3) μ GTP EC50 is the concentration of a compound providing 50% of the maximal response for the compound at a μ-opioid receptor.
(§4) μ GTP Emax (%) is the maximal effect elicited by a compound relative to the effect elicited by DAMGO, a standard μ agonist.
In TABLE 4, activity response of certain Compounds of the Invention to the μ- and κ-opioid receptors was determined as described above for functional assays using HEK-293 cells.

The target of assay [3] is κ-opioid receptor (Homo sapiens (Human), UniProt P41145). The experiment in a line: κ-opioid receptor functional assay (U-2 OS cells). Format: biochemical. To be noted: for Emax: relative to U69,593. The protocol: Functional [^35S]GTPγS binding assays were conducted as follows. κ opioid receptor membrane solution was prepared by sequentially adding final concentrations of 0.026 μg/μl κ membrane protein (in-house), 10 μg/mL saponin, 3 μM GDP and 0.20 nM [^35S]GTPγS to binding buffer (100 mM NaCl, 10 mM MgCl2, 20 mM HEPES, pH 7.4) on ice. The prepared membrane solution (190 μl/well) was transferred to 96-shallow well polypropylene plates containing 10 μl of 20× concentrated stock solutions of agonist prepared in DMSO. Plates were incubated for 30 min at a temperature of about 25° C. with shaking. Reactions were terminated by rapid filtration onto 96-well Unifilter GF/B filter plates (Perkin Elmer, Shelton, Conn.) using a 96-well tissue harvester (Packard) and followed by three filtration washes with 200 μl ice-cold binding buffer (10 mM NaH2PO4, 10 mM Na2HPO4, pH 7.4). Filter plates were subsequently dried at 50° C. for 2-3 hours. Fifty μl/well scintillation cocktail (Perkin Elmer, Shelton, Conn.) was added and plates were counted in a Packard Top-Count for 1 min/well.
κ GTP EC50 is the concentration of a compound providing 50% of the maximal response for the compound at a κ receptor.
κ GTP Emax (%) is the maximal effect elicited by a compound relative to the effect elicited by U69,593.
The following TABLE 5 provides results on the activity response of certain Compounds of the Invention at the μ- and κ-opioid receptors determined as described above using U-2 OS cells.

Assay [4] has as its target T1, μ-opioid receptor. The experiment in a line: μ-opioid receptor functional assay (U-2 OS cells). Format: biochemical. To be noted: for Emax: relative to DAMGO. The protocol:
as §2, §3, §4

Assay [5] concerns the target T1, μ-opioid receptor. Description: μ-opioid receptor radioligand dose-displacement binding assay (HEK-293 cells). The protocol:
Radioligand dose-displacement binding assays for μ-opioid receptors used 0.3 nM [^3H]-diprenorphine (Perkin Elmer, Shelton, Conn.), with […] membrane protein/well in a final volume of 500 μl binding buffer (10 mM MgCl2, 1 mM EDTA, 5% DMSO, 50 mM HEPES, pH 7.4). Reactions were carried out in the absence or presence of increasing concentrations of unlabeled naloxone. All reactions were conducted in 96-deep well polypropylene plates for 2 hours at room temperature. Binding reactions were terminated by rapid filtration onto 96-well Unifilter GF/C filter plates (Perkin Elmer, Shelton, Conn.), presoaked in 0.5% polyethylenimine using a 96-well tissue harvester (Perkin Elmer, Shelton, Conn.) followed by performing three filtration washes with 500 μl of ice-cold binding buffer. Filter plates were subsequently dried at 50° C. for 2-3 hours. BetaScint scintillation cocktail (Perkin Elmer, Shelton, Conn.) was added (50 μl/well), and plates were counted using a Packard Top-Count for 1 min/well. The data were analyzed using the one-site competition curve fitting functions in GraphPad PRISM™ v. 3.0 or higher (San Diego, Calif.), or an in-house function for one-site competition curve-fitting.
as §1

Turning to `COc1ccc2c(c1)[C@]13CCN(CC4CC4)[C@H](C2)[C@]12CC[C@@](N(Cc1ccccc1)Cc1ccccc1)(CO2)C3` [Compound 7, (4bR,6S,8aS,9R)—N,N-dibenzyl-11-(cyclopropylmethyl)-3-methoxy-5,6,7,8,9,10-hexahydro-9,4b-(epiminoethano)-8a,6-(epoxymethano)phenanthren-6-amine], the Ki (in general, a measure of affinity in units of concentration, obtained from inhibition or displacement) in assay [1] is 5.35 ± 0.91 nM; in assay [5] it was 64.3 ± 21.6 nM. For the same compound, the EC50 (usually the concentration that produces a half-maximal response) in assay [2] (HEK-293 cells, bound given in μM, read-out: Opioid Receptor μ EC50) is more than 20 µM; in assay [3] (U-2 OS cells, read-out: Opioid Receptor κ EC50) it was 2.99 ± 0.33 nM; in assay [4] (U-2 OS cells, read-out: Opioid Receptor μ EC50), 26.4 ± 3.96 nM. For the same compound, the Emax (in general, the greatest response seen or fitted, relative to the assay's reference) turned out to be 5.67 ± 1.86% in assay [2] (HEK-293 cells), 112 ± 3.93% in assay [3] (U-2 OS cells) and 84.3 ± 2.85% in assay [4] (U-2 OS cells).

Take `COc1ccc2c(c1)[C@]13CCN(CC4CC4)[C@H](C2)[C@]12CC[C@@](N)(CO2)C3` [Compound 8, (4bR,6S,8aS,9R)-11-(cyclopropylmethyl)-3-methoxy-5,6,7,8,9,10-hexahydro-9,4b-(epiminoethano)-8a,6-(epoxymethano)phenanthren-6-amine]: the Ki in assay [1] was found to be 4.72 ± 1.07 nM; in assay [5] it was 773 ± 161 nM. The EC50 in assay [2] was 1.11 ± 0.242 µM; in assay [3], 34.5 ± 3.61 nM; in assay [4], 88.8 ± 20.6 nM. Moreover, the results for the Emax in assay [2] (HEK-293 cells), in assay [3] (U-2 OS cells) and in assay [4] (U-2 OS cells) were 27.8 ± 2.17%, 112 ± 1.33% and 106 ± 2.96%, respectively.

With `COc1ccc2c(c1)[C@]13CCN(CC4CC4)[C@H](C2)[C@]12CC[C@@](NCc1ccccc1)(CO2)C3` [Compound 10, (4bR,6S,8aS,9R)-N-benzyl-11-(cyclopropylmethyl)-3-methoxy-5,6,7,8,9,10-hexahydro-9,4b-(epiminoethano)-8a,6-(epoxymethano)phenanthren-6-amine], the Ki in assay [1] stood at 0.026 nM; in assay [5] it was 25.9 ± 5.36 nM. The concentration giving a half-maximal response (EC50) in assay [2] was 0.0533 ± 0.00393 µM; in assay [3] it was 0.23 ± 0.01 nM; in assay [4], 2.08 ± 0.12 nM. Moreover, the Emax is 31.7 ± 1.67% in assay [2] (HEK-293 cells), 107 ± 5.36% in assay [3] (U-2 OS cells) and 110 ± 2.52% in assay [4] (U-2 OS cells).

In the case of `COc1ccc2c(c1)[C@]13CCN(CC4CC4)[C@H](C2)[C@]12CC[C@@](NCC1CCCCC1)(CO2)C3` [Compound 11, (4bR,6S,8aS,9R)—N-(cyclohexylmethyl)-11-(cyclopropylmethyl)-3-methoxy-5,6,7,8,9,10-hexahydro-9,4b-(epiminoethano)-8a,6-(epoxymethano)phenanthren-6-amine], the Ki stood at 0.052 ± 0.015 nM in assay [1] and 0.93 ± 0.11 nM in assay [5]. Also, the EC50 in assay [2] was 0.00178 ± 5e-05 µM; in assay [3] it was 0.042 nM; in assay [4], 0.033 nM. Besides, the Emax in assay [2] (HEK-293 cells) was 75.7 ± 4.1%; in assay [3] (U-2 OS cells), 101.3 ± 0.88%; in assay [4] (U-2 OS cells), 101 ± 2.08%.

For the compound `COc1ccc2c(c1)[C@]13CCN(CC4CC4)[C@H](C2)[C@]12CC[C@@](NC(=O)c1ccccc1)(CO2)C3` [Compound 18, N-((4bR,6S,8aS,9R)-11-(cyclopropylmethyl)-3-methoxy-5,6,7,8,9,10-hexahydro-9,4b-(epiminoethano)-8a,6-(epoxymethano)phenanthren-6-yl)benzamide], the figures for the Ki in assay [1] and in assay [5] were 0.032 ± 0.01 nM and 35.9 ± 8.18 nM, respectively. The EC50 in assay [2] came out at 0.175 ± 0.0217 µM; in assay [3], 0.42 ± 0.016 nM; in assay [4], 7.53 ± 0.69 nM. For the same compound, the figures for the Emax in assay [2] (HEK-293 cells), in assay [3] (U-2 OS cells) and in assay [4] (U-2 OS cells) were 41 ± 1.58%, 111 ± 2.6% and 107 ± 8.35%, respectively.

In the case of `COc1ccc2c(c1)[C@]13CCN(CC4CC4)[C@H](C2)[C@]12CC[C@@](NC(=O)CCc1ccccc1)(CO2)C3` [Compound 19, N-((4bR,6S,8aS,9R)-11-(cyclopropylmethyl)-3-methoxy-5,6,7,8,9,10-hexahydro-9,4b-(epiminoethano)-8a,6-(epoxymethano)phenanthren-6-yl)-3-phenylpropanamide], the Ki in assay [1] stood at 1.58 ± 0.44 nM; in assay [5], 9.26 ± 3.2 nM. The EC50 in assay [2] was 0.0412 ± 0.0128 µM; in assay [3], 2.84 ± 0.33 nM; in assay [4], 1.37 ± 0.11 nM. Besides, the maximal response (Emax) in assay [2] (HEK-293 cells) is 29.8 ± 1.96%; in assay [3] (U-2 OS cells), 109.7 ± 0.33%; in assay [4] (U-2 OS cells) it was 102 ± 5.7%.

For `COc1ccc2c(c1)[C@]13CCN(CC4CC4)[C@H](C2)[C@]12CC[C@@](NC(=O)c1ccc(Cl)cc1)(CO2)C3` [Compound 20, N-((4bR,6S,8aS,9R)-11-(cyclopropylmethyl)-3-methoxy-5,6,7,8,9,10-hexahydro-9,4b-(epiminoethano)-8a,6-(epoxymethano)phenanthren-6-yl)-4-chlorobenzamide], the inhibitory constant (Ki) in assay [1] turned out to be 0.6 ± 0.098 nM; in assay [5], 24.7 ± 3.5 nM. The results for the concentration giving a half-maximal response (EC50) in assay [2], in assay [3] and in assay [4] were 0.0524 ± 0.0117 µM, 3.24 ± 0.082 nM and 3.23 ± 0.13 nM, respectively. Besides, the Emax in assay [2] (HEK-293 cells) worked out at 20.2 ± 0.48%; in assay [3] (U-2 OS cells) it was 115 ± 2.85%; in assay [4] (U-2 OS cells), 102 ± 2.85%.
